Measurements taken from US20240197820A1, “Bacteriocin for new application” (priority 2021, published 2024).
“Also recorded” adds a separate entry of the source. No end group written: not given here.

How the values were obtained:
[1] = test system: S. aureus ATCC 6538; assay: Antimicrobial activity test on inoculated M17 agar plates (inhibition halo); type: cell-based, Staphylococcus aureus; settings: 1 mg/ml, overnight incubation
Description: (§1) Bacterial strains were grown overnight in liquid culture on rotary shakers or on agar plates using M17 media supplemented with 0.5% glucose. S. aureus ATCC 6538 and S. epidermidis ATCC 12228 liquid cultures and agar plates were grown anaerobically at 37° C. Culture volume utilized in MIC assays was 200 μl.
(§2) Antimicrobial activity of bacteriocin peptides was tested on M17 agar plates in Examples 1 and 3.
(§3) In Example 1, 2 μl of cerein 7B peptide (SEQ ID NO: 2) aqueous solutions at a concentration of 1 mg/ml were deposited on inoculated M17 agar plates of S. aureus ATCC 6538 and S. epidermidis ATCC 12228. In the case of S. epidermidis ATCC 12228, an equivalent amount of aureocin A53 aqueous solution (1 mg/ml concentration) was used as positive control.
In Example 3, 5 μl of bacteriocin peptides (SEQ ID NO: 2, 4-51) aqueous solutions at a concentration of 1 mg/ml were deposited on inoculated M17 agar plates of S. aureus ATCC 6538. After overnight incubation, the presence of an inhibition halo was considered as a positive result of antimicrobial activity.

[2] = test system: S. epidermidis ATCC 12228; assay: as above; type: cell-based, Staphylococcus epidermidis; settings: 2 μl of aqueous solution, 1 mg/ml, overnight incubation
Description: as §1, §2, §3

[3] = test system: S. aureus ATCC 6538; assay: MIC assay in liquid culture (endpoint OD600); type: cell-based, Staphylococcus aureus; settings: liquid culture 200 μl, M17 + 0.5% glucose, 37° C., overnight, 2-fold dilutions from 250 μg/ml
Description: as §1
(§4) Determination of MIC values of a cerein 7B peptide (SEQ ID NO: 2) was performed in liquid cultures of S. aureus ATCC 6538 and S. epidermidis ATCC 12228. Growth was assessed by measuring endpoint OD600 values in a Spectramax i3 (Molecular Devices, CA, USA). Minimum inhibitory concentration (MIC) was defined as the lowest concentration which inhibited 50% of the growth of cultures as compared to reference cultures not exposed to the peptide. Concentration of the peptide was 250 μg/ml in well 11, diluted 2-fold per subsequent well as shown in Table 3 (concentrations rounded to the second decimal): […]

[4] = test system: Lactococcus lactis LMG IL 1403; settings: cited from earlier work
[5] = test system: S. epidermidis ATCC 12228; assay: MIC assay in liquid culture (endpoint OD600); type: cell-based, Staphylococcus epidermidis; settings: tested concentrations 0.24 to 250 μg/ml
Description: as §1, §4

Substance | antimicrobial activity of mutants (inhibition halo) ([1]; 5 μl of aqueous solution, M17 agar plate, peptides synthesized in vitro (PURExpress)) | inhibition halo (antimicrobial activity on agar plate) [2] | inhibition halo (antimicrobial activity on agar plate) ([1]; 2 μl of aqueous solution, chemically synthesized peptide) | MIC (lowest concentration which inhibited 50% of the growth of cultures) [3] | activity against Lactococcus lactis LMG IL 1403 [4] | growth inhibition in MIC assay [5]
GWWNSWGKCVAGTIGGAGTGGLGGAAAGSAVPVIGTGIGGAIGGVSGGLTGAATFCW (mutant 48 (E2)) [SEQ ID NO: 51] | did not compromise its antimicrobial activity | – | – | – | – | –
aureocin A53 [reference compound] | – | an inhibition halo was present | – | – | – | –
GWWNSWGKCVAGTIGGAGTGGLGGAAAGSAVPVIGTGIGGAIGGVSGGLTGAATFC (cysteines drawn unpaired) [cerein 7B] | – | no inhibition halo was visible; also recorded: no inhibition halo was present | An inhibition halo was visible | 15.63 µg/mL | demonstrated its activity | No growth inhibition was observed
